SMILES strings stand for the structures. Counter-ions that a name gives are not always drawn. Where only a bound is given, the exact number is not on record here.

The first assay addresses human, mouse or rat recombinant CSE (UniProt P32929). The experiment in a line: CSE In Vitro Assay.
Details: not given
`CCN(N)c1nnn[nH]1` [Example 2-4]: the IC50 (in general, the concentration at which inhibition is half-maximal) is less than 10 µM.

On to `CN(N)c1nnn(C)n1` [Example 2-29, 2-methyl-5-(1-methylhydrazinyl)-2H-tetrazole], for which the IC50 was greater than 100 µM.

Staying with this assay, now noted: […]; species of enzyme not given.
In the case of `COCCN(N)c1nnn[nH]1` [Example 2-6], the IC50 was 10 to 100 µM.

As for `N#CCC(N)c1nnn[nH]1` (stereo not drawn) [Example 1-1, 3-amino-3-(1H-tetrazol-5-yl)propionitrile dihydrochloride], the IC50 is greater than 100 µM.

As for `NCCCN(N)c1nnn[nH]1` [Example 2-12, 3-(1-(1H-tetrazol-5-yl)hydrazinyl)propan-1-amine dihydrochloride], the 50% inhibitory concentration (IC50) is less than 10 µM.

Still in this assay, the particulars now being: recombinant CSE 20 ug/ml, 50 uM PLP, DL-homocysteine substrate, 3 hours 37° C.; species of enzyme not given.
For `CC(C)N(N)c1nnn[nH]1` [Example 2-9], the IC50 was greater than 100 µM.

As for `CC/C(C)=N/Nc1nnn[nH]1` [Example 2-25], the half-maximal inhibitory concentration (IC50) was less than 10 µM.

As to `C/C(=N\Nc1nnn[nH]1)c1ccc(N(C)C)cc1` [Example 2-22], the IC50 is less than 10 µM.

`C#CC[C@H](N)C(=O)Nc1nn[nH]n1` [Example 1-7, (S)-2-amino-N-(2H-tetrazol-5-yl)pent-4-ynamide]: the IC50 was 10 to 100 µM.

`CN(C)c1ccc(C(=O)C/C=N/Nc2nnn[nH]2)cc1` [Example 2-26, (E)-3-(2-(1H-tetrazol-5-yl)hydrazono)-1-(4-(dimethylamino)phenyl)propan-1-one]: the IC50 was less than 10 µM.

For `CN(C)CCN(N)c1nnn[nH]1` [Example 2-2, 2-(1-(1H-tetrazol-5-yl)hydrazinyl)-N,N-dimethylethanamine], the IC50 is greater than 100 µM.

Turning to `C#CC[C@H](N)c1noc(=O)[nH]1` [Example 1-3, (S)-3-(1-aminobut-3-ynyl)-1,2,4-oxadiazol-5(4H)-one hydrochloride], the IC50 was less than 10 µM.

`CCN(N)C(=O)c1nnn[nH]1` [Example 2-33, N-ethyl-1H-tetrazole-5-carbohydrazide]: the IC50 is greater than 100 µM.

As to `C1CCC(=NNc2nnn[nH]2)C1` [Example 2-24], the IC50 was less than 10 µM.

Regarding `NCCN(N)c1nnn[nH]1` [Example 2-13], the IC50 is less than 10 µM.

Consider `CC(C)=NN(C)c1nnn[nH]1` [Example 2-28, 5-(1-methyl-2-(propan-2-ylidene)hydrazinyl)-1H-tetrazole], for which the IC50 is less than 10 µM.

As for `CCN(N)c1ncn[nH]1` [Example 2-31, 5-(1-ethylhydrazinyl)-1H-1,2,4-triazole], the IC50 is greater than 100 µM.

Regarding `CC(C)=NNc1nnn[nH]1` [Example 2-21], the IC50 is less than 10 µM.

For `C#CC[C@H](N)C(=O)NS(=O)(=O)c1ccccc1` [Example 1-8, (S)-2-amino-N-(phenylsulfonyl)pent-4-ynamide hydrochloride], the IC50 was in the range of 10 to 100 µM.

Turning to `C#CC[C@H](N)C(=O)NS(C)(=O)=O` [Example 1-9, (S)-2-amino-N-(methylsulfonyl)pent-4-ynamide hydrochloride], the IC50 fell in the range of 10 to 100 µM.

With `C#CC[C@H](N)c1ncn[nH]1` [Example 1-4, (S)-1-(1H-1,2,4-triazol-5-yl)but-3-yn-1-amine hydrochloride], the IC50 was less than 10 µM.

`COCCCN(N)c1nnn[nH]1` [Example 2-5]: the IC50 was greater than 100 µM.

Regarding `Clc1ccc(/C=N/Nc2nnn[nH]2)c(Cl)c1` [Example 2-19], the concentration for half-maximal inhibition (IC50) is greater than 100 µM.

Regarding `C1CCC(=NNc2nnn[nH]2)CC1` [Example 2-23], the concentration for half-maximal inhibition (IC50) is less than 10 µM.

`Clc1ccc(/C=N/Nc2nnn[nH]2)cc1` [Example 2-20]: the half-maximal inhibitory concentration (IC50) is less than 10 µM.

For the compound `CN(C)CCCN(N)c1nnn[nH]1` [Example 2-1, 3-(1-(1H-tetrazol-5-yl)hydrazinyl)-N,N-dimethylpropan-1-amine], the IC50 is 10 to 100 µM.

For the compound `NN(Cc1ccccc1)c1nnn[nH]1` [Example 2-8], the IC50 was greater than 100 µM.

Take `C#CC[C@H](N)c1nc(N)n[nH]1` [Example 1-6, (S)-5-(1-aminobut-3-ynyl)-1H-1,2,4-triazol-3-amine hydrochloride]: the IC50 is greater than 100 µM.

For `CC(C)CN(N)c1nnn[nH]1` [Example 2-10], the IC50 is greater than 100 µM.

As for `C(=N\Nc1nnn[nH]1)/c1ccccc1` [Example 2-17, (E)-5-(2-benzylidenehydrazinyl)-1H-tetrazole], the IC50 lay within 10 to 100 µM.

Turning to `CCCN(N)c1nnn[nH]1` [Example 2-7], the IC50 is 10 to 100 µM.

Consider `C#CC[C@H](N)c1nnn[nH]1` [Example 1-2, (S)-1-(1H-tetrazol-5-yl)-but-3-ynylamine hydrochloride], for which the IC50 is less than 10 µM.

`CN(C)c1ccc(/C=N/Nc2nnn[nH]2)cc1` [Example 2-18]: the IC50 lay in the range of 10 to 100 µM.

In the case of `CN(C)c1ccc(/C=N/N(C)c2nnn[nH]2)cc1` [Example 2-27, (E)-N,N-dimethyl-4-((2-methyl-2-(1H-tetrazol-5-yl)hydrazono)methyl)aniline], the IC50 is 10 to 100 µM.

Take `CCN(N)C(=O)NS(=O)(=O)c1ccccc1` [Example 2-35, 1-ethyl-N-(phenylsulfonyl)hydrazinecarboxamide]: the half-inhibitory concentration (IC50) is greater than 100 µM.

For `CN(N)c1noc(=O)[nH]1` [Example 2-32, 3-(1-methylhydrazinyl)-1,2,4-oxadiazol-5(4H)-one hydrochloride], the IC50 was 10 to 100 µM.

For the compound `CNCCCN(N)c1nnn[nH]1` [Example 2-15], the IC50 is less than 10 µM.

Take `CNCCN(N)c1nnn[nH]1` [Example 2-14]: the IC50 was in the range of 10 to 100 µM.

Take `CCN(N)C(=O)Nc1nnn[nH]1` [Example 2-34, 1-ethyl-N-(1H-tetrazol-5-yl)hydrazinecarboxamide]: the half-inhibitory concentration (IC50) is greater than 100 µM.

As to `C#CC[C@H](N)c1nc(C(F)(F)F)n[nH]1` [Example 1-5, (S)-1-(3-(trifluoromethyl)-1H-1,2,4-triazol-5-yl)but-3-yn-1-amine hydrochloride], the IC50 is greater than 100 µM.

With `CN(N)c1nnn[nH]1` [Example 2-11], the IC50 is less than 10 µM.

Take `C#CCN(N)c1nnn[nH]1` [Example 2-3, 5-(1-(prop-2-ynyl)hydrazinyl)-1H-tetrazole]: the IC50 was less than 10 µM.

For the origin of these results see US20150272934A1, “USE OF CSE INHIBITORS FOR THE TREATMENT OF CUTANEOUS INJURIES OR CONDITIONS AND SLEEP-RELATED BREATHING DISORDERS” (SOVA PHARMACEUTICALS, INC., priority 2012, published 2015).
